From article PMC11484861 (Nature Communications, 2024)

Tested on: SARS-CoV-2 M protein level
Type: cell-based, human

SMILES | decrease in M protein levels induced by SQSTM1 | IMβ3-5-promoted degradation of M, VP2 and PB1-F2
COC[C@H]1OC(=O)c2coc3c2[C@@]1(C)C1=C(C3=O)[C@@H]2CCC(=O)[C@@]2(C)C[C@H]1OC(C)=O [wortmannin] | rescued | 
CCN(CC)CCCC(C)Nc1ccnc2cc(Cl)ccc12 (stereo not drawn) [CQ, chloroquine] | rescued | blocked
